According to PubChem BioAssay (NCI):
Several values for one entry are separate records, joined by “and”; a condition that tells them apart may be missing. Equal values may be shown once.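 Values below derive from 48-hour exposures of cells grown in 96-well plates, with endpoints linearly interpolated between the two concentrations bracketing the appropriate inhibition level. At the GI50, growth is halved. At the TGI there is no net growth.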

Tests used:
Assay in all cases: growth of human tumour cells (NCI), 48 h
A498 renal = tested on: A498 renal
HOP-92 NSCLC = tested on: HOP-92 NSCLC
KM20L2 colon = tested on: KM20L2 colon
LXFL 529 NSCLC = tested on: LXFL 529 NSCLC
MALME-3M melanoma = tested on: MALME-3M melanoma
MOLT-4 leukemia = tested on: MOLT-4 leukemia
PC-3 prostate = tested on: PC-3 prostate
SF-268 CNS = tested on: SF-268 CNS
SF-539 CNS = tested on: SF-539 CNS
SK-MEL-5 melanoma = tested on: SK-MEL-5 melanoma

Row | Compound | TGI (A498 renal) | TGI (HOP-92 NSCLC) [µM] | TGI (KM20L2 colon) [µM] | TGI (LXFL 529 NSCLC) [µM] | TGI (MALME-3M melanoma) | TGI (MOLT-4 leukemia) | TGI (PC-3 prostate) | TGI (SF-268 CNS) | TGI (SF-539 CNS) | TGI (SK-MEL-5 melanoma) | GI50 (A498 renal) [µM] | GI50 (MALME-3M melanoma) [µM] | GI50 (MOLT-4 leukemia) [µM] | GI50 (PC-3 prostate) [µM] | GI50 (SF-268 CNS) [µM] | GI50 (SK-MEL-5 melanoma) [µM]
1 | Cn1c(=O)nc2n(-c3ccc(Cl)cc3)c3cc(Cl)ccc3nc-2c1=O | 27.6 µM | 18.5 | 35.7 | 3.13 | 3.44 µM | 16.5 µM | 24.1 µM | 7.23 µM | 30.4 µM | 3.07 µM | – | – | – | – | – | –
2 | Cn1c2c(c3ccccc31)CCN(CCCCN1CCN(c3ccccc3)CC1)C2=O | > 100 µM | > 100 | 33.6 | > 100 | 30.9 µM | > 78 µM | 86.6 µM | > 78.4 µM | > 100 µM | 22.9 µM | – | – | – | – | – | –
3 | COc1cc(/C=C2\CCC/C(=C\c3ccc(O)c(OC)c3)C2=O)ccc1O | 13.5 µM and 5.34 µM | 30.7 | 28.7 | 4.22 | 5.85 µM and 3.47 µM | 25.6 µM and 15.5 µM | 23.7 µM and 13.6 µM | 6.91 µM and 8.2 µM | 4.42 µM and 5.73 µM | 6.82 µM and 3.09 µM | 1.81 | 0.276 | 2.18 | 3.14 | 1.8 | 1.54
4 | CC(=O)O[C@H]1CCN2C(=O)C=CC(OCc3ccccc3)C12 (stereo not given in full) | > 100 µM | > 100 | > 100 | > 100 | > 100 µM | > 100 µM | – | > 100 µM | > 100 µM | > 100 µM | – | – | – | – | – | –
5 | OCC[N+]12CCCN1CCC2 | > 100 µM | > 100 | > 100 | > 100 | > 100 µM | > 100 µM | – | > 100 µM | > 100 µM | > 100 µM | – | – | – | – | – | –
6 | Cc1ccc(NC(=O)CC/C(CC(=O)C(C)(C)C)=N\NC(=O)C[n+]2ccccc2)cc1C | > 100 µM | > 100 | > 100 | > 100 | > 100 µM | > 100 µM | – | > 100 µM | > 100 µM | > 100 µM | – | – | – | – | – | –
7 | CCOc1ccc(/C=C/c2cc(OC)c(OC)c(OC)c2)cc1 | 30.4 µM | 93.8 | 6.81 | 15.1 | 28.8 µM | 44.6 µM | – | > 25.8 µM | 3.02 µM | 14.6 µM | – | – | – | – | – | –
8 | N#CCC(=O)N/N=C1/C(=O)N(c2cc(Cl)ccc2Cl)C(=O)C(=O)C1c1nc2ccccc2s1 (stereo not given) | > 100 µM | 83.1 | > 100 | > 100 | > 100 µM | > 100 µM | – | > 100 µM | > 100 µM | > 100 µM | – | – | – | – | – | –
9 | O=C(N/C(=C\c1cccc([N+](=O)[O-])c1)c1nc2ccccc2[nH]1)c1ccccc1 | > 100 µM | > 100 | > 100 | > 100 | > 100 µM | > 100 µM | – | > 100 µM | > 100 µM | > 100 µM | – | – | – | – | – | –
